What all share (assay): relative viability (nuclei count vs DMSO), 5 days (fraction); higher = more cells survive
Compound in assay [1]: C[C@@H](C(=O)N[C@@H](C1CCCCC1)C(=O)N2CCC[C@H]2C(=O)N[C@@H]3[C@@H](CC4=CC=CC=C34)OCC#CC#CCO[C@@H]5CC6=CC=CC=C6[C@@H]5NC(=O)[C@@H]7CCCN7C(=O)[C@H](C8CCCCC8)NC(=O)[C@H](C)NC)NC [AZD5582]
The procedure, abridged: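 Hoechst staining, done together with fixation and permeabilisation, marked nuclei for 4× imaging and MetaXpress counting. This followed 5 days without medium change after lung cancer cell lines, kept overnight at 37 °C in 1536-well plates, were pinned with five library-drug doses (not always all listed) spaced by √10 on vehicle-anchored plates. Viability is the ratio of treated-well to vehicle-well nuclei, expressed as a median across plates. Plates passed only at control CV below 25% with at least one doubling.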

Compound in assay [2]: C[C@@H](C(=O)N[C@@H](C1CCCCC1)C(=O)N2CCC[C@H]2C(=O)N[C@@H]3[C@@H](CC4=CC=CC=C34)OCC#CC#CCO[C@@H]5CC6=CC=CC=C6[C@@H]5NC(=O)[C@@H]7CCCN7C(=O)[C@H](C8CCCCC8)NC(=O)[C@H](C)NC)NC [AZD5582] + CC(C)C[C@H](NC(=O)[C@H](Cc1ccccc1)NC(=O)c1cnccn1)B(O)O [Bortezomib] (partner 0.002 µM)
Put shortly: (§1)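 Relative viability divides the nuclei count in treated wells by that in vehicle wells. Lung cancer cell lines were seeded in 1536-well plates, dosed by pin tool the next day, and fixed and stained after 5 days in one step with final 0.05% Triton X-100, 1% formaldehyde and 1 ug/ml Hoechst. Dosing was a single drug or a fixed anchor-drug dose plus five library-drug doses (not always all listed) in √10 steps, and values are medians of duplicate plates imaged at 4×.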

Compound in assay [3]: C[C@@H](C(=O)N[C@@H](C1CCCCC1)C(=O)N2CCC[C@H]2C(=O)N[C@@H]3[C@@H](CC4=CC=CC=C34)OCC#CC#CCO[C@@H]5CC6=CC=CC=C6[C@@H]5NC(=O)[C@@H]7CCCN7C(=O)[C@H](C8CCCCC8)NC(=O)[C@H](C)NC)NC [AZD5582] + Nc1nc2[nH]cc(CCc3ccc(C(=O)N[C@@H](CCC(=O)O)C(=O)O)cc3)c2c(=O)[nH]1 [Pemetrexed] (partner 0.2 µM)
Put shortly: as §1

Compound in assay [4]: Cn1nnc2c(C(N)=O)ncn2c1=O [Temozolomide] + N=C(N)NC(=N)NCCc1ccccc1 [Phenformin] (partner 250 µM)
Put shortly: as §1

For 10 cell lines, relative viability results are on record in the supplement of paper PMC10307832.

As to 201T, the relative viability in assay [1] (0.001581 µM) was determined as 1.03; in assay [1] (0.005 µM) it was 1.15; in assay [1] (0.01581 µM), 0.971; in assay [1] (0.05 µM), 1.21; in assay [2] (first compound 0.001581 µM) it was 1.1; in assay [2] (first compound 0.005 µM) it was 1.16. Also, the relative viability came out at 1.07 in assay [2] (first compound 0.01581 µM); 1.17 in assay [2] (first compound 0.05 µM); 0.311 in assay [3] (first compound 0.001581 µM); 0.299 in assay [3] (first compound 0.005 µM); 0.298 in assay [3] (first compound 0.01581 µM); 0.281 in assay [3] (first compound 0.05 µM). The relative viability in assay [4] (first compound 0.2 µM) is 0.491; in assay [4] (first compound 0.6325 µM), 0.449; in assay [4] (first compound 2 µM), 0.497; in assay [4] (first compound 6.325 µM) it was 0.376; in assay [4] (first compound 20 µM) it was 0.456.

Turning to A549, the relative viability in assay [1] (0.001581 µM) is 0.876; in assay [1] (0.005 µM) it was 1.01; in assay [1] (0.01581 µM), 0.928; in assay [1] (0.05 µM), 0.999; in assay [4] (first compound 0.6325 µM), 0.161; in assay [4] (first compound 2 µM), 0.136. For the same cell line, the relative viability in assay [4] (first compound 6.325 µM) came to 0.147; in assay [4] (first compound 20 µM), 0.177.

For A-427, the relative viability in assay [1] (0.001581 µM) came out at 0.917; in assay [1] (0.005 µM), 0.971; in assay [1] (0.01581 µM), 0.882; in assay [1] (0.05 µM) it was 0.721; in assay [2] (first compound 0.001581 µM), 0.92; in assay [2] (first compound 0.005 µM) it was 0.954. Besides, the relative viability in assay [2] (first compound 0.01581 µM) turned out to be 0.938; in assay [2] (first compound 0.05 µM) it was 0.891; in assay [3] (first compound 0.001581 µM) it was 0.931; in assay [3] (first compound 0.005 µM), 0.92; in assay [3] (first compound 0.01581 µM), 0.978; in assay [3] (first compound 0.05 µM), 0.89. Also, the relative viability came out at 0.314 in assay [4] (first compound 0.2 µM); 0.364 in assay [4] (first compound 0.6325 µM); 0.39 in assay [4] (first compound 2 µM); 0.246 in assay [4] (first compound 6.325 µM); 0.267 in assay [4] (first compound 20 µM).

Regarding ABC-1, the relative viability in assay [1] (0.001581 µM) was 0.898; in assay [1] (0.005 µM), 1.03; in assay [1] (0.01581 µM), 0.767; in assay [1] (0.05 µM) it was 0.936; in assay [2] (first compound 0.001581 µM), 0.282; in assay [2] (first compound 0.005 µM) it was 0.275. Further, the relative viability in assay [2] (first compound 0.01581 µM) was 0.291; in assay [2] (first compound 0.05 µM), 0.261; in assay [4] (first compound 0.2 µM), 0.241; in assay [4] (first compound 0.6325 µM) it was 0.232; in assay [4] (first compound 2 µM), 0.24; in assay [4] (first compound 6.325 µM) it was 0.213. Further, the relative viability in assay [4] (first compound 20 µM) was determined as 0.237.

As to BEN, the relative viability in assay [1] (0.001581 µM) is 0.926; in assay [1] (0.005 µM) it was 1.01; in assay [1] (0.01581 µM) it was 1.05; in assay [1] (0.05 µM), 0.828; in assay [2] (first compound 0.001581 µM) it was 0.786; in assay [2] (first compound 0.005 µM) it was 0.87. The relative viability in assay [2] (first compound 0.01581 µM) worked out at 0.911; in assay [2] (first compound 0.05 µM), 0.579; in assay [3] (first compound 0.001581 µM), 0.663; in assay [3] (first compound 0.005 µM) it was 0.723; in assay [3] (first compound 0.01581 µM), 0.925; in assay [3] (first compound 0.05 µM), 0.759. In addition, the relative viability was 0.286 in assay [4] (first compound 0.2 µM); 0.288 in assay [4] (first compound 0.6325 µM); 0.229 in assay [4] (first compound 2 µM); 0.27 in assay [4] (first compound 6.325 µM); 0.26 in assay [4] (first compound 20 µM).

CAL-12T: the relative viability in assay [1] (0.001581 µM) turned out to be 0.647; in assay [1] (0.005 µM), 0.724; in assay [1] (0.01581 µM), 0.784; in assay [1] (0.05 µM), 0.551; in assay [2] (first compound 0.001581 µM), 0.777; in assay [2] (first compound 0.005 µM), 0.746. In addition, the relative viability in assay [2] (first compound 0.01581 µM) was determined as 0.448; in assay [2] (first compound 0.05 µM) it was 0.668; in assay [3] (first compound 0.001581 µM), 0.792; in assay [3] (first compound 0.005 µM) it was 0.811; in assay [3] (first compound 0.01581 µM) it was 1.11; in assay [3] (first compound 0.05 µM), 0.967. Besides, the relative viability in assay [4] (first compound 0.2 µM) turned out to be 0.657; in assay [4] (first compound 0.6325 µM), 0.612; in assay [4] (first compound 2 µM), 0.529; in assay [4] (first compound 6.325 µM) it was 0.574; in assay [4] (first compound 20 µM), 0.558.

As for COR-L23, the relative viability in assay [1] (0.001581 µM) stood at 1.02; in assay [1] (0.005 µM), 1.11; in assay [1] (0.01581 µM), 0.966; in assay [1] (0.05 µM), 1.03; in assay [2] (first compound 0.001581 µM), 0.942; in assay [2] (first compound 0.005 µM), 1.02. The relative viability in assay [2] (first compound 0.01581 µM) was 1.07; in assay [2] (first compound 0.05 µM), 1.09; in assay [3] (first compound 0.001581 µM), 0.201; in assay [3] (first compound 0.005 µM), 0.206; in assay [3] (first compound 0.01581 µM), 0.191; in assay [3] (first compound 0.05 µM), 0.196. For the same cell line, the relative viability in assay [4] (first compound 0.2 µM) worked out at 0.511; in assay [4] (first compound 0.6325 µM), 0.475; in assay [4] (first compound 2 µM), 0.437; in assay [4] (first compound 6.325 µM), 0.462; in assay [4] (first compound 20 µM), 0.428.

As for COR-L 105, the relative viability worked out at 0.936 in assay [1] (0.001581 µM); 1.11 in assay [1] (0.005 µM); 0.876 in assay [1] (0.01581 µM); 1.02 in assay [1] (0.05 µM); 0.768 in assay [2] (first compound 0.001581 µM); 0.877 in assay [2] (first compound 0.005 µM). Moreover, the relative viability in assay [2] (first compound 0.01581 µM) was 0.69; in assay [2] (first compound 0.05 µM), 0.827; in assay [3] (first compound 0.001581 µM) it was 1.09; in assay [3] (first compound 0.005 µM) it was 1.11; in assay [3] (first compound 0.01581 µM), 1; in assay [3] (first compound 0.05 µM), 1.25. In addition, the relative viability in assay [4] (first compound 0.2 µM) was found to be 0.452; in assay [4] (first compound 0.6325 µM) it was 0.603; in assay [4] (first compound 2 µM), 0.594; in assay [4] (first compound 6.325 µM), 0.452; in assay [4] (first compound 20 µM) it was 0.305.

As for Calu-6, the relative viability stood at 0.83 in assay [1] (0.001581 µM); 0.724 in assay [1] (0.005 µM); 0.989 in assay [1] (0.01581 µM); 0.573 in assay [1] (0.05 µM); 0.917 in assay [2] (first compound 0.001581 µM); 0.813 in assay [2] (first compound 0.005 µM). Besides, the relative viability in assay [2] (first compound 0.01581 µM) came out at 0.988; in assay [2] (first compound 0.05 µM), 0.551.

As for ChaGo-K-1, the relative viability is 0.978 in assay [1] (0.001581 µM); 1.02 in assay [1] (0.005 µM); 0.971 in assay [1] (0.01581 µM); 0.975 in assay [1] (0.05 µM); 0.988 in assay [2] (first compound 0.001581 µM); 0.985 in assay [2] (first compound 0.005 µM). The relative viability was 0.93 in assay [2] (first compound 0.01581 µM); 0.982 in assay [2] (first compound 0.05 µM); 0.243 in assay [3] (first compound 0.001581 µM); 0.267 in assay [3] (first compound 0.005 µM); 0.254 in assay [3] (first compound 0.01581 µM); 0.276 in assay [3] (first compound 0.05 µM). The relative viability in assay [4] (first compound 0.2 µM) was 0.595; in assay [4] (first compound 0.6325 µM), 0.484; in assay [4] (first compound 2 µM), 0.617; in assay [4] (first compound 6.325 µM), 0.413; in assay [4] (first compound 20 µM), 0.509.
